In patent US6613572B2, “Agent for expression of long-term potentiation of synaptic transmission comprising compound having brain somatostatin activation property” (priority 1999, dated 2003):

Assays:
rat hippocampal slice = experiment: Somatostatin release from rat hippocampal slice upon high K+ (50 mM) stimulation, radioimmunoassay; format: cell-based; settings: property significant at 10^-7 M and 10^-6 M vs control (Dunnett)
Protocol: Rat hippocampal slices (thickness 350 μm, round slice) were prepared by a standard method. Twenty rat hippocampal slices were placed in a perfusion chamber, incubated at 37° C. and perfused by a batch method while exchanging the incubation buffer every 10 minutes. The incubation buffer used had the composition as noted below. A mixed gas of oxygen (95%) and carbon dioxide (5%) was used to saturate the buffer. Composition of incubation buffer: NaCl, 124 mM; KCl, 5 mM; KH2PO4, 1.24 mM; MgSO4, 1.3 mM; CaCl2, 2.4 mM; NaHCO3, 26 mM; D-glucose, 10 mM
Perfusion for 150 minutes gave fractions 1-15. To fraction 9 was applied a high K^+ (50 mM) stimulation. Compound 1 was added to fractions 7-15 to the concentration of 10^−9 M, 10^−7 M, […], 10^−6 M, respectively. […] The respective fractions thus obtained were concentrated by lyophilization and somatostatin in the perfusate was quantified by radioimmunoassay (RIA). After the completion of the experiment, somatostatin remaining in the slices was extracted by a conventional method and quantified by radioimmunoassay. The somatostatin amount released by high K^+ (50 mM) stimulation was calculated and the amount of somatostatin released due to the property of compound 1 was measured.
Somatostatin release (%) by compound 1 at each concentration was calculated as in the following. […] The number of the test samples measured was 10 or 11. […]

[1] = system: mossy fiber-CA3 field pyramidal cell of hippocampal slice; experiment: LTP in mossy fiber-CA3 field pyramidal cell of hippocampal slice, population spikes after tetanic stimulation; format: cell-based, guinea pig
Protocol: Slices (thickness 500 μm, round slice) were prepared from hippocampus removed from male Hartley guinea pigs (body weight 220-350 g) and population spikes were extracellularly recorded. The hippocampal slices were perfused with an artificial cerebrospinal fluid (33-34° C., composition: NaCl, 124 mM; KCl, 5 mM; KH2PO4, 1.24 mM; MgSO4, 1.3 mM; CaCl2, 2.4 mM; NaHCO3, 26 mM; D-glucose, 10 mM) saturated with a mixed gas of oxygen (95%) and carbon dioxide (5%) at flow rate of 1.8-2.0 ml/min. Mossy fiber was stimulated with a stimulating electrode at a voltage of not more than 10 V, frequency of 0.2 Hz and the population spikes in the CA3 field pyramidal cell layer was recorded every 5 minutes. When the population spikes to be recorded were stabilized, tetanic stimulation for induction of LTP was applied. The tetanic stimulation includes stimulation at the same voltage of not more than 10 V, as when the stimulation was applied at a frequency of 0.2 Hz, but upon increase of the frequency to 33 Hz for 5 seconds. The height of from negative peak to the next positive peak of the obtained population spikes after stimulation was measured and taken as an amplitude (population spike amplitude; PSA). The degree of LTP was expressed by a potential variation (%) by the increase in the amplitude of population spikes after tetanic stimulation relative to the average of 4 measurements of the amplitudes of population spikes obtained before tetanic stimulation. Each value was expressed by mean±S.E.M (the number of slices tested was 3 to 8). As the index of the property of a drug, the area (%·min) between the graph from 12 minutes to 62 minutes after tetanic stimulation and the line where the potential variation is 0%, in the time lapse graph of potential variation, was calculated and taken as the magnitude of LTP. Compound 1 was dissolved in and diluted with distilled water and added to perfusate to the concentration of 10^−9 M, 10^−8 M, 10^−7 M and 10^−6 M, respectively, and applied to a hippocmpal slice for […] from 2 minutes before the tetanic stimulation to 4 minutes thereafter. Nothing was added to perfusate for control group.
The property of compound 1 relative to the magnitude of LTP was tested by one-way analysis of variance and Dunnett's multiple comparison test.

[2] = system: voltage-dependent calcium channel of hippocampus pyramidal cells; experiment: Voltage-dependent Ca2+ current of rat hippocampus pyramidal cell, whole cell patch-clamp; format: cell-based
Protocol: Hippocampal slices were prepared from the brains of 5- to 14-day-old male Wistar rats and the nerve cells were quickly isolated by trypsin enzyme treatment method. According to the whole cell patch-clamp method, the membrane potential of hippocampus pyramidal cell was fixed at −80 mV and the membrane potential-dependent […] current (Ica) was measured in Cs^+ electrode inner solution and Ba^2+ bath outer solution. The resistance of the electrode was 2-4 MΩ. Compound 1 was added to bath outer solution concentrations of 0.01 μM, 0.1 μM and 1.0 μM, respectively, and perfused with the bath outer solution. Nothing was added to the bath outer solution for the control group. The maximal value of the current (peak amplitude) was measured, and calculated as the variation (%) relative to the value before addition of compound 1. Each value (%) was expressed by mean±S.E.M. The number of measurements was 7. The property of compound 1 was evaluated by Dunnett's multiple comparison test relative to the control group.

[3] = system: voltage-dependent calcium channel of hippocampus pyramidal cell; experiment: Effect of somatostatin and compound 1 on voltage-dependent Ca2+ current of rat hippocampus pyramidal cell; format: cell-based; settings: compound 1 10^-7 M plus somatostatin 10^-7 M
Protocol: Hippocampal slices were prepared from the brains of 5- to 14-day-old male Wistar rats and the nerve cells were quickly isolated by trypsin enzyme treatment method. According to the whole cell patch-clamp method, the membrane potential of hippocampus pyramidal cell was fixed at −80 mV and the membrane potential-dependent […] current (Ica) was measured in Cs^+ electrode inner solution and Ba^2+ bath outer solution. The resistance of the electrode was 2-4 MΩ. Compound 1 was added to bath outer solution concentrations of 0.01 μM, 0.1 μM and 1.0 μM, respectively, and perfused with the bath outer solution. Nothing was added to the bath outer solution for the control group. The maximal value of the current (peak amplitude) was measured, and calculated as the variation (%) relative to the value before addition of compound 1. Each value (%) was expressed by mean±S.E.M. The number of measurements was 7. The property of compound 1 was evaluated by Dunnett's multiple comparison test relative to the control group. […]

CC(=O)N1CCN(NC(=O)c2ccc(F)cc2)CC1.O [Compound 1, N-(4-acetyl-1-piperazinyl)-p-fluorobenzamide monohydrate]
somatostatin release (%) (rat hippocampal slice): promoted somatostatin release
potential variation after tetanic stimulation (magnitude of LTP, 12 to 62 min) ([1]; at 10^-7 M and 10^-6 M): increased potential variation
response of base before tetanic stimulation (potential variation) ([1]; before tetanic stimulation, compound applied to slice in perfusate): no significant influence
LTP enhancing property in hippocampal slice from guinea pig treated with cysteamine ([1]; cysteamine 200 mg/kg, compound 1 at 10^-7 M): did not show LTP enhancing property
concentration at which the action on LTP was maximal ([1]; tested at 10^-9 to 10^-6 M): 10^−7 M
membrane potential-dependent calcium current (variation of peak amplitude) ([2]; 0.01 μM, 0.1 μM and 1.0 μM, compared to control group, holding -80 mV): significantly promoted
shape of dose dependency of the calcium current promotion ([2]; 0.01 to 1.0 μM): bell-shape dose dependency
suppressive property of somatostatin on calcium current in the presence of compound 1 [3]: completely released
